# Reference: patent US20140357706A1, “Stearate Compounds” (THE UAB RESEARCH FOUNDATION, priority 2011, published 2014)
# Columns and labels:
# [1] = test system: MCF10A; settings: ref (27); cited from earlier work
# [2] = test system: Hs578T human breast cancer cells; experiment: Flow cytometry cell cycle analysis; type: cell-based; settings: 50 μM stearate
# Method: Hs578T human breast cancer cells (ATCC, HTB-126) were maintained according to the manufacturer's recommendations, in Dulbecco's modified Eagle's medium containing 10% fetal bovine serum, […] insulin and penicillin/streptomycin.
# The concentration of stearate used to treat the Hs578T cells was 50 μM. When EGF was used, the concentration was 1 nM EGF. Before the treatment with stearate or EGF, cells were first starved for 24-48 hours. Stearate was loaded onto fatty acid-free bovine serum albumin (BSA) according to the method reported by Spector et al. (13); briefly, stearate (0.5 g) was dissolved in chloroform (100 ml) and mixed well with 10 g diatomaceous earth in a 1 liter flask. The mixture was stirred and dried under nitrogen until powder. BSA is a physiological carrier of fatty acids and was used to avoid the introduction of organic solvents to solutions coming into contact with cells. […] The concentration of stearate in the solution was detected with the NEFA C Kit from Wako Chemicals GmbH (Neuss, Germany). […]
# To analyze cellular DNA content, confluent Hs578t cells were harvested, fixed in ice-cold 70% ethanol for 30 min and then resuspended in citrate buffer (4 mM sodium citrate) containing 50 μg/ml of propidium iodide and 100 μg/ml of RNase. […] Data were analyzed using the ModFit LT workshop program (BD Immunocytometry System, San Jose, Calif.).
# [3] = test system: Rho mRNA; experiment: RT-PCR for RhoA, RhoB, RhoC in Hs578T cells; type: cell-based, human
# Method: In total, 30-40% confluent Hs578T cells were treated with stearate (50 μM) for 48 hours after starvation for 24 hours. Total RNA was extracted and reverse-transcribed as described in RT-PCR for p21^CIP1/WAF1 and p27^[…]. The PCR assay was performed in a volume of 50 μl, containing 4μl DNA template, 45 μl Platinum PCR Supermix (Invitrogen) and 0.2 μM each specific primer. PCR specificity and efficiency were improved by using hot start PCR with 3 min pre-denaturation, at 95° C., and 30 cycles of denaturation (95° C., 30 s), annealing (52° C., 30 s) and 1 min extension (72° C.). The PCR products (20 INS>μl) were analyzed by means of 1% agarose in tris-acetate ethylenediaminetetraacetic acid gel electrophoresis and visualized by ethidium bromide staining under ultraviolet; digital images were analyzed by means of a FUJI Medical System (FUJIFILM) and the bands quantified by Quantity Software (FUJIFILM). […] was used to normalize the variable RNA loading in each sample. The calculated result represents the relative expression levels of target genes compared with its expression in the control group after the value of target genes was normalized to GAPDH expression levels.
# [4] = test system: Ras; experiment: Ras activation assay in Hs578T cells; type: cell-based, human; settings: with or without EGF
# Method: The concentration of stearate used to treat the Hs578T cells was 50 μM. When EGF was used, the concentration was 1 nM EGF. Before the treatment with stearate or EGF, cells were first starved for 24-48 hours. Stearate was loaded onto fatty acid-free bovine serum albumin (BSA) according to the method reported by Spector et al. (13); briefly, stearate (0.5 g) was dissolved in chloroform (100 ml) and mixed well with 10 g diatomaceous earth in a 1 liter flask. The mixture was stirred and dried under nitrogen until powder. BSA is a physiological carrier of fatty acids and was used to avoid the introduction of organic solvents to solutions coming into contact with cells. Fatty acid-free BSA (1 g) was dissolved in 100 ml with Dulbecco's modified Eagle's medium without phenol red and mixed with 3 g of the stearate/diatomaceous earth mixture with stirring for 45 min. The stearate/BSA solution was filtered through a 0.45 μm filter, and adjusted to pH 7.4. The concentration of stearate in the solution was detected with the NEFA C Kit from Wako Chemicals GmbH (Neuss, Germany). […]
# Ras and Rho activation assay kits were purchased from Millipore (Billerica, Mass.). […] The beads were washed three times with lysis buffer B. Bound Ras-GTP and Rho-GTP proteins were detected by immunoblot using Ras and Rho antibodies.
# [5] = test system: 3T3L1 cells; experiment: 3T3L1 cell differentiation (oil red O staining); type: cell-based, mouse; settings: 50 μM during differentiation
# Method: 3T3L1 mouse fibroblast cells (ATCC, CL-173™) were maintained according to the manufacture's protocol, in Dulbecco's modified eagle's medium (DMEM) containing 10% Fetal Bovine Serum and antibiotics (M1 medium). Adipocyte differentiation was performed according to standard procedures (42). Briefly, the 3T3L1 fibroblasts were seeded at 30% confluence and allowed to grow to near 100% confluence. On the day after reaching maximum confluence, conversion was induced by replacing the M1 medium with M1 medium containing insulin (5 μg/ml), dexamethasone (0.25 μM), and 3-isobutyl-1-methyl-xanthine (0.5 mM). After 2 days, the cells were changed to M1 medium with insulin (5 μg/ml) for an additional 2 days. […]
# 50 μM of stearate, oleate or linoleate was used to treat 3T3L1 cells as this concentration is centered within the normal range for non-esterified stearate in the plasma of humans. […] The concentration of stearate in the solution was detected by use of a NEFA C kit. […]
# Cellular lipids were stained with oil red O. Briefly, identical numbers of 3T3L1 cells were placed in 6-well plates, cultured and converted to adipocytes as described above. […] 200 cells were counted under the microscope in each sample, and the percentage of converted adipocytes was calculated. […] The oil red O was then eluted with 1 ml 100% isopropanol, and the OD was measured at 520 nm in a spectrophotometer.
structure (smiles),measurement,setting,value
"CCCCCCCCCCCCCCCCCC(=O)O [stearate, Stearic acid]",Effect on MCF10A non-tumorigenic cell line,[1],not affected
same,Cells in the S phase,[2],reduced
same,Number of cells in G0/G1 and G2/M,[2]; also in complete media and with EGF,increased
same,Rho mRNA expression,[3]; over 24 h,neither EGF nor stearate affected
same,RhoA mRNA expression,[3]; stearate 50 μM for 48 h,significantly decreased
same,RhoB mRNA expression,[3]; stearate 50 μM for 48 h,remained unchanged
same,RhoC mRNA expression,[3]; stearate 50 μM for 48 h,significantly decreased
same,Total Rho mRNA expression,[3]; stearate 50 μM for 48 h,significantly decreased
same,Binding of GTP to Ras,[4],increases
same,"Oil red O eluted, OD value",[5],no difference
same,Percentage of differentiated adipocytes,[5]; vs control,no significant difference
